Experimental data taken from ChEMBL document CHEMBL1146870, “N-Tetrahydroquinolinyl, N-quinolinyl and N-isoquinolinyl biaryl carboxamides as antagonists of TRPV1” (Bioorg Med Chem Lett, 2006).

Legend:
[1] = target: T1, Transient receptor potential cation channel subfamily V member 1 (Homo sapiens, UniProt Q8NER1); experiment: Antagonist activity against human TRPV1 assessed as inhibition of capsaicin-induced calcium influx by FLIPR assay; format: functional
[2] = species on record: Homo sapiens; experiment: Intrinsic clearance in human liver microsomes; format: ADME, Microsome
[3] = target: T2, Cytochrome P450 1A2 (Homo sapiens, UniProt P05177); experiment: Inhibition of cytochrome P450 1A2; format: ADME
T2 sequence (P05177 whole entry): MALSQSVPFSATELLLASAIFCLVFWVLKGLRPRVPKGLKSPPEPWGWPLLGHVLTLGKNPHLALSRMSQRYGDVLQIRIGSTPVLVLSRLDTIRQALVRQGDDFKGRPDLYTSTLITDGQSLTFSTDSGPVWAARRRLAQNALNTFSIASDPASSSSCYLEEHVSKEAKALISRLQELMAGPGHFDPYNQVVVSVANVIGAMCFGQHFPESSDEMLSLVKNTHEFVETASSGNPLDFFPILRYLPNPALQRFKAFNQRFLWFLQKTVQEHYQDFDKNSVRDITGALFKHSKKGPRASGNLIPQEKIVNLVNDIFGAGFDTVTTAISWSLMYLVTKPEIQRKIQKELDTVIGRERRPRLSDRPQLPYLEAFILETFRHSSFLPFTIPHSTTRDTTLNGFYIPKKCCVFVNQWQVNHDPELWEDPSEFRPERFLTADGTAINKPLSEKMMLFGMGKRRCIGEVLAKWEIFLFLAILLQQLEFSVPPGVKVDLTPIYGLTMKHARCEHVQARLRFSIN

[4] = target: Transient receptor potential cation channel subfamily V member 1 (Rattus norvegicus) (UniProt O35433)
Description: Antagonist activity against rat TRPV1 assessed as inhibition of capsaicin-induced calcium influx by FLIPR assay

[5] = target: Cytochrome P450 2C9 (Homo sapiens, UniProt P11712); experiment: Inhibition of cytochrome P450 2C9; format: ADME
[6] = target: Transient receptor potential cation channel subfamily V member 1 (Rattus norvegicus, UniProt O35433); experiment: Antagonist activity against rat TRPV1 assessed as inhibition of acid-induced calcium influx by FLIPR assay; format: functional
[7] = target: T1, Transient receptor potential cation channel subfamily V member 1; experiment: Antagonist activity against human TRPV1 assessed as inhibition of acid-induced calcium influx by FLIPR assay; format: functional
[8] = target: Cytochrome P450 2D6 (Homo sapiens, UniProt P10635); experiment: Inhibition of cytochrome P450 2D6; format: ADME
[9] = target: Cytochrome P450 3A4 (Homo sapiens, UniProt P08684); experiment: Inhibition of cytochrome P450 3A4; format: ADME
[10] = target: Transient receptor potential cation channel subfamily V member 1 (Cavia porcellus) (UniProt Q6R5A3)
Description: Antagonist activity against guinea pig TRPV1 assessed as inhibition of capsaicin-induced calcium influx by FLIPR assay

[11] = system: Cavia porcellus; experiment: Inhibition of Freund's complete adjuvant-induced inflammatory hyperalgesia in guinea pig at 30 mg/kg, sc; format: functional; settings: route subcutaneous
[12] = target: Cytochrome P450 2C19 (Homo sapiens, UniProt P33261); experiment: Inhibition of cytochrome P450 2C19; format: ADME
Sequence of Cytochrome P450 2C19 (P33261 whole entry): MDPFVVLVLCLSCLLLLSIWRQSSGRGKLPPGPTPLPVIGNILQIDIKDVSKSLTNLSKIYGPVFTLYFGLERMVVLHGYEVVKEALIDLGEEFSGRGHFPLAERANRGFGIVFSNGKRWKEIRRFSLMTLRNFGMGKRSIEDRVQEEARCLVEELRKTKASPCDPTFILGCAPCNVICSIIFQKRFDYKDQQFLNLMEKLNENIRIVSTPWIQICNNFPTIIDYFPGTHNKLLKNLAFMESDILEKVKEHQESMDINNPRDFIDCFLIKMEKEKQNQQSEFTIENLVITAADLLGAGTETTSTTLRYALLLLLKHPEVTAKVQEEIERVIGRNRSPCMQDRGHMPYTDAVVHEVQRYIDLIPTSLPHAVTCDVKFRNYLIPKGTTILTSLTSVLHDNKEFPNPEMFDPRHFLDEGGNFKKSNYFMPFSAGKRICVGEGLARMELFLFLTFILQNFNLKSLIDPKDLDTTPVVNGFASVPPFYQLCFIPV

T1 sequence (Q8NER1 whole entry): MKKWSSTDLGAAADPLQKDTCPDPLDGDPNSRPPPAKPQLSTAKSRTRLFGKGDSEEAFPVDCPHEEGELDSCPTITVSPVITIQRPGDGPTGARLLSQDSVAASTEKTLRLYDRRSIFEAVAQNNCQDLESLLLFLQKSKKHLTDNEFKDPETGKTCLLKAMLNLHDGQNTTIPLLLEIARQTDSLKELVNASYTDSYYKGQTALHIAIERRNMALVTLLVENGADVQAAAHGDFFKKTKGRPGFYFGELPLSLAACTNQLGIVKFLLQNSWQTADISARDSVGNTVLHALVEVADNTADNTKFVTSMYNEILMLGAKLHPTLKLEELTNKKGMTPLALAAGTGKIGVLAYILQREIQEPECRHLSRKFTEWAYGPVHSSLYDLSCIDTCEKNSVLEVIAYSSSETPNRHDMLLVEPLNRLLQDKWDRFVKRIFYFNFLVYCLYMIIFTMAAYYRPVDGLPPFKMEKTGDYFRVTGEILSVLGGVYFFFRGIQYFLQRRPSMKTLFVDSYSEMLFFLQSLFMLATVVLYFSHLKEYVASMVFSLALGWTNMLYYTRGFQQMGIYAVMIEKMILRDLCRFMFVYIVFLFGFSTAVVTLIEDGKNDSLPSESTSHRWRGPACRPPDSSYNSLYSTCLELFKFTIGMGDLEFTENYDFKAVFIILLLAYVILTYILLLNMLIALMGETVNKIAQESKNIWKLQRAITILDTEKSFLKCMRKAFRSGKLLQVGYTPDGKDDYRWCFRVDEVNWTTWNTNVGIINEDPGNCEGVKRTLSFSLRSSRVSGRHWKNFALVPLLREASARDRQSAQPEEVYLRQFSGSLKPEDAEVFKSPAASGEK
Sequence of Cytochrome P450 3A4 (P08684 whole entry): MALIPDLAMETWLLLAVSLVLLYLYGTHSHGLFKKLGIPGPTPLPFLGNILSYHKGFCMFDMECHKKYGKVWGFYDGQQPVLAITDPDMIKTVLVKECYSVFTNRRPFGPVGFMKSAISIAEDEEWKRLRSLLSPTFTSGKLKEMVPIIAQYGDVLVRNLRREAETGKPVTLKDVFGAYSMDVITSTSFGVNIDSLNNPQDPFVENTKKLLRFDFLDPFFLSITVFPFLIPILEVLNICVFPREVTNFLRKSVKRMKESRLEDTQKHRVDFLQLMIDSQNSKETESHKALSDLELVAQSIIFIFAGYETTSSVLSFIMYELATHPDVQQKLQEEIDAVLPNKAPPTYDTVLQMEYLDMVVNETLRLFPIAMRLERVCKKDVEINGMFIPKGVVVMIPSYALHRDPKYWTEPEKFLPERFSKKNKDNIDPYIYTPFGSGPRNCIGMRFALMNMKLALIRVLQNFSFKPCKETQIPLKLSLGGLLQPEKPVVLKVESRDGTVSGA
Sequence of Cytochrome P450 2D6 (P10635 whole entry): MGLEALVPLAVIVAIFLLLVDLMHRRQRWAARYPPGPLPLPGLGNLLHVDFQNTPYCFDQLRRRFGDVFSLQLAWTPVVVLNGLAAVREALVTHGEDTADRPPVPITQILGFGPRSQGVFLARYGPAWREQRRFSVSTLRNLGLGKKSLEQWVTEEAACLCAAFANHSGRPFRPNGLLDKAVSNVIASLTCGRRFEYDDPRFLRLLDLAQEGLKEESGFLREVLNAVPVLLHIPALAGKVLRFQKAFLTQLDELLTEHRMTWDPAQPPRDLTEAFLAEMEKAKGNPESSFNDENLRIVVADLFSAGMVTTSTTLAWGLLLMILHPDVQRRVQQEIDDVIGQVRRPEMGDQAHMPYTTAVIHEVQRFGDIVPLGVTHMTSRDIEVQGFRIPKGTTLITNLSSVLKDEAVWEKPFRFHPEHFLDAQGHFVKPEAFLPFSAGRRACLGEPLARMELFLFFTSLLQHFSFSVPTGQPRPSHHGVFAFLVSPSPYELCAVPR
Sequence of Transient receptor potential cation channel subfamily V member 1 (Rattus norvegicus, UniProt O35433) (O35433 whole entry): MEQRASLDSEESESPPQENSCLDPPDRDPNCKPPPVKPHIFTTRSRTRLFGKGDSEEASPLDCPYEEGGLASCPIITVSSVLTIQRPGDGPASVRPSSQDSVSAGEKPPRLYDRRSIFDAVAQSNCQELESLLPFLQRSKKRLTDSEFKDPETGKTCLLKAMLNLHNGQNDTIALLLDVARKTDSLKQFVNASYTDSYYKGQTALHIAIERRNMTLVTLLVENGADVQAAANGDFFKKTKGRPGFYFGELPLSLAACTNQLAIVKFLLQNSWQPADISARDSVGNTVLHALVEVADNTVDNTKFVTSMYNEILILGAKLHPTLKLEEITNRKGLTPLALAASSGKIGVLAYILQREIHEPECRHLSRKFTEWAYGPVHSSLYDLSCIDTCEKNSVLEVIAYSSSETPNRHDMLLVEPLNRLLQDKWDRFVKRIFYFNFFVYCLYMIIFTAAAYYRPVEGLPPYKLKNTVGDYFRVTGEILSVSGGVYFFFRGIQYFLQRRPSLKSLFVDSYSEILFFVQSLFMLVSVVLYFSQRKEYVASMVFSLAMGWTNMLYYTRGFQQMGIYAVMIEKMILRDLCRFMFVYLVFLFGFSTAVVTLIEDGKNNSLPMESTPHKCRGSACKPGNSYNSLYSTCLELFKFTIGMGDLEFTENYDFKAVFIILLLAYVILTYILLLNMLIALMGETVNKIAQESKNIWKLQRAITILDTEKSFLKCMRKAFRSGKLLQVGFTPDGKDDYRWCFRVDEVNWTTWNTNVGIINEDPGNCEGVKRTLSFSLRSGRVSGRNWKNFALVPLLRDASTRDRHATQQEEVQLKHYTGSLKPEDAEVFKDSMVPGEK
Sequence of Transient receptor potential cation channel subfamily V member 1 (Rattus norvegicus) (O35433 whole entry): as above
Sequence of Transient receptor potential cation channel subfamily V member 1 (Cavia porcellus) (Q6R5A3 whole entry): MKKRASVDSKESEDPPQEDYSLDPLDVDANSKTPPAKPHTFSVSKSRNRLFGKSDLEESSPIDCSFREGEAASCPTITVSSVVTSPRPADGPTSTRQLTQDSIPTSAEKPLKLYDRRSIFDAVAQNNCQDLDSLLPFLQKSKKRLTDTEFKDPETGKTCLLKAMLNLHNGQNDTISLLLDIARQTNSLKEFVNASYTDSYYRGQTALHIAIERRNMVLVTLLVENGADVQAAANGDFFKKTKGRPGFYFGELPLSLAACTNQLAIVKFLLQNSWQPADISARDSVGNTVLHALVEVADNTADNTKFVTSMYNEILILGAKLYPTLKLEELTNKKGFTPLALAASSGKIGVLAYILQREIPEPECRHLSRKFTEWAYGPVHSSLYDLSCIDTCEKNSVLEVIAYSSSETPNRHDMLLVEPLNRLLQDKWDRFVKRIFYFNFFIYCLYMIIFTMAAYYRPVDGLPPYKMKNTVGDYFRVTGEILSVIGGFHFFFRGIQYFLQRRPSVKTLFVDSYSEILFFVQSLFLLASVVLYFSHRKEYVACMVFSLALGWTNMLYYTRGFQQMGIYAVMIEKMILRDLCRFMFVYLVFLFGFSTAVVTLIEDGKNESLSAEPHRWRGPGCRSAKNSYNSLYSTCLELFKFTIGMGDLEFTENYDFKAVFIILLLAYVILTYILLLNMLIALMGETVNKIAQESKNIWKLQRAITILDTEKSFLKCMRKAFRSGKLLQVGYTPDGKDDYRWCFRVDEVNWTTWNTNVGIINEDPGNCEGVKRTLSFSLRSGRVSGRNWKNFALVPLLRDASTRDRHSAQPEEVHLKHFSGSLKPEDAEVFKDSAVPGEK
Sequence of Cytochrome P450 2C9 (P11712 whole entry): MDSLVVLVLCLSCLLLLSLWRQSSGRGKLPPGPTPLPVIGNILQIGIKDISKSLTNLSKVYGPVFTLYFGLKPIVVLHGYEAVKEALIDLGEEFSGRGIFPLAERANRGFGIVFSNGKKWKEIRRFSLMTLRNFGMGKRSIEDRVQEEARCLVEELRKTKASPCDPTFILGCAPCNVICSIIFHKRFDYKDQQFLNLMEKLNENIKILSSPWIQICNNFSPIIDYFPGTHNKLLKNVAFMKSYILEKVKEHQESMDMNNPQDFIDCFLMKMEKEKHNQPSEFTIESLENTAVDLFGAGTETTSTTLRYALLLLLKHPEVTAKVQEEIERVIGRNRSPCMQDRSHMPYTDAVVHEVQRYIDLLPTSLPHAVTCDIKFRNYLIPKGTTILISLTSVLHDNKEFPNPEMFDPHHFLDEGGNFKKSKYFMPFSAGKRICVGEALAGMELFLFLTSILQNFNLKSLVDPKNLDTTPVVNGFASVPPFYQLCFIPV

| pKb [1] | SMILES | further results |
| --- | --- | --- |
| 6.9 | CN1CCCc2ccc(NC(=O)c3ccc(-c4cncnc4)cc3)cc21 | – |
| 7.8 | CN1CCCc2ccc(NC(=O)c3ccc(-c4ccsc4)cc3)cc21 | – |
| < 6.8 | CN1CCCc2ccc(NC(=O)c3cnc(-c4ccccc4)cn3)cc21 | – |
| 7 | CNS(=O)(=O)c1cccc(-c2ccc(C(=O)Nc3ccc4c(c3)N(C)CCC4)cc2)c1 | – |
| 7.1 | CN1CCCc2cc(NC(=O)c3ccc(-c4ccccc4)cc3)ccc21 | – |
| 7.1 | CN1CCCc2ccc(NC(=O)c3ccc(-c4ccccc4)cc3Cl)cc21 | – |
| 7.4 | CN(C)CCN1CCCc2ccc(NC(=O)c3ccc(-c4ccccc4)cc3)cc21 | – |
| 7.2 | CC(=O)N1CCCc2ccc(NC(=O)c3ccc(-c4ccccc4)cc3)cc21 | – |
| < 6.8 | COc1cc(-c2ccccc2)ccc1C(=O)Nc1ccc2c(c1)N(C)CCC2 | – |
| < 6.5 | O=C(Nc1cccc2ncccc12)c1ccc(-c2ccccc2)cc1 | – |
| 6.9 | O=C(Nc1ccc2ncccc2c1)c1ccc(-c2ccccc2)cc1 | – |
| < 6.8 | CN1CCCc2ccc(NC(=O)c3cccc(-c4ccccc4)c3)cc21 | – |
| 6.9 | CC(=O)NCCN1CCCc2ccc(NC(=O)c3ccc(-c4ccccc4)cc3)cc21 | – |
| 7.5 | CN1CCCc2ccc(NC(=O)c3ccc(-c4ccccc4)cc3)cc21 | CL [2]: 7 mL/min/g |
| 6.9 | CN1CCCc2ccc(NC(=O)c3ccc(-n4cccn4)cc3)cc21 | – |
| < 6.3 | CN1CCCc2cccc(NC(=O)c3ccc(-c4ccccc4)cc3)c21 | – |
| 8.5 | O=C(Nc1ccc2ccc(O)nc2c1)c1ccc(-c2ccccc2)cc1 | – |
| – | O=C(Nc1ccc2cccnc2c1)c1ccc(-c2ccccc2)nc1 | IC50 [3]: > 18 µM; pKb [4]: 8.4; IC50 [5]: > 18 µM; IC50 [6]: 25.1 nM; IC50 [7]: 7.94 nM; IC50 [8]: > 18 µM; IC50 [9]: > 18 µM; pKb [10]: 8.4; CL [2]: < 5 mL/min/g; inhibition in vivo at 30 mg/kg [11]: 32%; IC50 [12]: > 18 µM |

| pKb [1] | SMILES | further results |
| --- | --- | --- |
| 7.4 | Cc1cc(C(=O)Nc2ccc3c(c2)N(C)CCC3)ccc1-c1ccccc1 | – |
| 7.7 | O=C(Nc1cccc2cnccc12)c1ccc(-c2ccccc2)cc1 | – |
| 7 | CC(=O)c1cccc(-c2ccc(C(=O)Nc3ccc4c(c3)N(C)CCC4)cc2)c1 | – |
| 7.1 | CN1CCCc2ccc(NC(=O)c3ccc(-c4cnccn4)cc3)cc21 | – |
| 7.3 | COCCN1CCCc2ccc(NC(=O)c3ccc(-c4ccccc4)cc3)cc21 | – |
| 7.6 | CN1CCCc2ccc(NC(=O)c3ccc(-c4cccs4)cc3)cc21 | – |
| 7.7 | O=C(Nc1ccc2cnccc2c1)c1ccc(-c2ccccc2)cc1 | – |
| 7.7 | O=C(Nc1ccc2c(c1)NCCC2)c1ccc(-c2ccccc2)cc1 | – |
| 7.8 | CN1CCCc2ccc(NC(=O)c3ccc(-c4ccccc4)nc3)cc21 | CL [2]: 4 mL/min/g |
| 7.2 | COCC(=O)N1CCCc2ccc(NC(=O)c3ccc(-c4ccccc4)cc3)cc21 | – |
| 8 | Cc1ccc2ccc(NC(=O)c3ccc(-c4ccccc4)cc3)cc2n1 | – |
| 7.4 | O=C(Nc1ccc2ccncc2c1)c1ccc(-c2ccccc2)cc1 | – |
| 9.4 | O=C(Nc1ccc2cccnc2c1)c1ccc(-c2ccccc2)cc1 | – |
| 7 | CN1CCCc2ccc(NC(=O)c3ccc(-c4ccccc4)s3)cc21 | – |
| 7.1 | CN(C)C(=O)c1ccc(-c2ccc(C(=O)Nc3ccc4c(c3)N(C)CCC4)cc2)cc1 | – |
| < 6.5 | CN1CCCc2c(NC(=O)c3ccc(-c4ccccc4)cc3)cccc21 | – |
| < 6.6 | CN1CCCc2ccc(NC(=O)c3ccccc3-c3ccccc3)cc21 | – |
| < 6.5 | O=C(Nc1cccc2cccnc12)c1ccc(-c2ccccc2)cc1 | – |
